According to ChEMBL document CHEMBL5137050, “Hematopoietic Progenitor Kinase 1 in Tumor Immunology: A Medicinal Chemistry Perspective” (J Med Chem, 2022):

Tests used:
[1] = target: T1, Mitogen-activated protein kinase kinase kinase kinase 1 (Homo sapiens, UniProt Q92918); assay: Inhibition of HPK1 (unknown origin) preincubated for 15 mins measured after 90 mins by ADP-Glo kinase assay
[2] = target: T1, Mitogen-activated protein kinase kinase kinase kinase 1; assay: Inhibition of HPK1 in human Jurkat E6.1 cells assessed as inhibition of SLP76 phosphorylation treated for 4 hrs by HTRF assay; assay type: cell-based
[3] = target: Tyrosine-protein kinase Lck (Homo sapiens, UniProt P06239); assay: Inhibition of LCK (unknown origin)
Chain of Tyrosine-protein kinase Lck (P06239 whole entry): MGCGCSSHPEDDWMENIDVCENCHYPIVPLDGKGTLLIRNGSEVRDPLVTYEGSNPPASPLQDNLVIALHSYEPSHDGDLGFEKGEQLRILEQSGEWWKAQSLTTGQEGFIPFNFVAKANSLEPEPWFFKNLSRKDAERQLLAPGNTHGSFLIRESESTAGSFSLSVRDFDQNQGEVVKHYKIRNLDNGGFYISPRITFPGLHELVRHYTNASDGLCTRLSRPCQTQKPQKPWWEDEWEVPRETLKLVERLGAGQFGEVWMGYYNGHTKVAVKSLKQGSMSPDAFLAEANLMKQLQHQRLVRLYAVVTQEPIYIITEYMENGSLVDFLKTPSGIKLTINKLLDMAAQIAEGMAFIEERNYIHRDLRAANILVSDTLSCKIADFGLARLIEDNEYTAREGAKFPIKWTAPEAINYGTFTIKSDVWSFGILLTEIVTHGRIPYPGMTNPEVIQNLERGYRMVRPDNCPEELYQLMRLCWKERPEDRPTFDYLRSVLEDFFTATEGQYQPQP

[4] = target: T2, Tyrosine-protein kinase ITK/TSK (Homo sapiens, UniProt Q08881); assay: Inhibition of ITK (unknown origin)
T2 sequence (Q08881 whole entry): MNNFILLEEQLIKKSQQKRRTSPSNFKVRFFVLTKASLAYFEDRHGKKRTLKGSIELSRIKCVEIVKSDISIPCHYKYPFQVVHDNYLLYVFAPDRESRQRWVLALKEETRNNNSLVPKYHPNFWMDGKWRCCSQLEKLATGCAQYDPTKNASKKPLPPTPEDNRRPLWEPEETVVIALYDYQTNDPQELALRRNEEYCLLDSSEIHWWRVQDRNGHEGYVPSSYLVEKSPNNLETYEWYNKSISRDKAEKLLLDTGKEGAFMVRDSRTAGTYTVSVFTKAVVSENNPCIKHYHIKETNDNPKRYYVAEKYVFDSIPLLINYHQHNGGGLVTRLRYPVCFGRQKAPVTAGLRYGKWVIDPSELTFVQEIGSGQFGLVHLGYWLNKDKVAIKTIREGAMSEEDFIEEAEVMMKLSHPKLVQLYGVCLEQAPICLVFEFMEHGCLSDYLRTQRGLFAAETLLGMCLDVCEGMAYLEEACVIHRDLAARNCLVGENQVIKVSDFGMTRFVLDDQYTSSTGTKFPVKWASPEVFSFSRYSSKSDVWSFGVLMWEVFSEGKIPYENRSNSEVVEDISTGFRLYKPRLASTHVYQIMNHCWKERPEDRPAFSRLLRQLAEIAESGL

[5] = target: T3, Tyrosine-protein kinase ZAP-70 (Homo sapiens, UniProt P43403); assay: Inhibition of ZAP70 (unknown origin)
T3 sequence (P43403 whole entry): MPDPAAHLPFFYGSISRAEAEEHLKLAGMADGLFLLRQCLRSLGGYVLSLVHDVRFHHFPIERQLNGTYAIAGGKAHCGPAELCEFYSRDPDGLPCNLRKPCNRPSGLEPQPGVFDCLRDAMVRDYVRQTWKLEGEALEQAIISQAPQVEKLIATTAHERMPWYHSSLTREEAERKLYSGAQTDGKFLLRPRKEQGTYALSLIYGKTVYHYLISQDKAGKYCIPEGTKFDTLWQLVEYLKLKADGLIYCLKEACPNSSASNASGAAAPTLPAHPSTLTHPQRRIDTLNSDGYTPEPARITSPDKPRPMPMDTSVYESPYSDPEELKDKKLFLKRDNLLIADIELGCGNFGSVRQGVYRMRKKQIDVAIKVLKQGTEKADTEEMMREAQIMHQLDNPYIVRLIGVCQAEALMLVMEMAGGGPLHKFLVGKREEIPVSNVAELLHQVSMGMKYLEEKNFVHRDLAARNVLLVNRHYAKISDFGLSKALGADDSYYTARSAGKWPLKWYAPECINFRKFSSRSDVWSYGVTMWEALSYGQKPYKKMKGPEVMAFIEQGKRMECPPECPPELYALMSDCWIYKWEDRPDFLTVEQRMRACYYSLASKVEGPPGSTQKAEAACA

[6] = target: T1, Mitogen-activated protein kinase kinase kinase kinase 1; assay: Inhibition of full-length unphosphorylated HPK1 (unknown origin) by scintillation proximity assay
[7] = target: T1, Mitogen-activated protein kinase kinase kinase kinase 1; assay: Inhibition of full-length phosphorylated HPK1 (unknown origin)

T1 sequence (Q92918 whole entry): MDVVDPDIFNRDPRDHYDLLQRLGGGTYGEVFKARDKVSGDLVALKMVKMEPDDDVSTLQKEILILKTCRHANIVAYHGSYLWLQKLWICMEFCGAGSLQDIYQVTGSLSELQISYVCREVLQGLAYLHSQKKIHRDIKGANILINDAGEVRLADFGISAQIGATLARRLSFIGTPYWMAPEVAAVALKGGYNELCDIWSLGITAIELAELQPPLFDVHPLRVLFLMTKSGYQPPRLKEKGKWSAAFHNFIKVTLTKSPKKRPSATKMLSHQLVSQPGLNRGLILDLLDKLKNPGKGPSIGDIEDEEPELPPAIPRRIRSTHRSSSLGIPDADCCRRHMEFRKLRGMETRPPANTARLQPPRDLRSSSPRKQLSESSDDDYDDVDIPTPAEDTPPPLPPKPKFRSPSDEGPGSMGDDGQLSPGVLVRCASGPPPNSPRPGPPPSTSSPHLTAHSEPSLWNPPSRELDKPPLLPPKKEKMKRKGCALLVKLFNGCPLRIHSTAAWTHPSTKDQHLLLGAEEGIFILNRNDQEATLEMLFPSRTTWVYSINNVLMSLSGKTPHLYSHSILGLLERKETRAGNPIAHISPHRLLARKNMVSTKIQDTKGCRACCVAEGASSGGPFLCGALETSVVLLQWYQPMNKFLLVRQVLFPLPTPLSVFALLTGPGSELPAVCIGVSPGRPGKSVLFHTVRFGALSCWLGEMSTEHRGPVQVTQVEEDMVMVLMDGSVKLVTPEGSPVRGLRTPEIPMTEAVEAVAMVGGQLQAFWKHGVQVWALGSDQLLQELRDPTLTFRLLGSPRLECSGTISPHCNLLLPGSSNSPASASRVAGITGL

| IC50 [1] [µM] | IC50 [2] [µM] | IC50 [3] [µM] | IC50 [4] [µM] | IC50 [5] [µM] | IC50 [6] [µM] | IC50 [7] [µM] | Compound |
| --- | --- | --- | --- | --- | --- | --- | --- |
| < 0.1 | < 1 |  |  |  |  |  | CN1CCC(c2ncc(-c3cnc(N)c(OCc4cccc(C#CC(C)(C)O)c4)c3)s2)CC1 |
|  |  | > 49.5 | > 49.5 | > 49.5 | 1.2 | 29 | Cc1[nH]c2nnc(C)n2c(=O)c1CC(=O)Nc1ncc(Cc2ccccc2F)s1 |
